What was measured:
[1] = Liver microsomal stability, mouse; assay type: in vitro ADME; conditions: mouse liver microsomes
Description: Liver microsome stability studies (human, mouse, and rat) were performed at Sumika Chemical Analysis Service (Osaka, Japan) by following an established procedure. A mixture of 1 μM of substrate, 0.5 mg protein/mL of microsomes, and […] β-NADPH was incubated for 30 or 60 min and % remaining substrate was quantitatively measured by LC-MS/MS.

[2] = Metabolic analysis in vivo: blood concentration after injection; conditions: PXB-mice (cDNA-uPA^wild/+/SCID), other: injection, human hepatocyte-chimeric mouse, blood at 5-480 min, n = 1, read-out: t1/2 in blood
[3] = system: HBV genotype C; assay: HBsAg and HBeAg in culture medium by ELISA; assay type: cell-based; conditions: 30 µM, 7 days
Description: PXB cells were plated on 96-well plate and infected with three genome equivalents per cell of HBV C_AT [33], and the medium was changed every 3 or 4 days. […] After treatment with these compounds, cellular DNA, medium DNA, and total RNA were automatically purified as per our previously established protocol. RNA purification of total RNA from cultured cells in the 24-well plate was performed using the RNeasy Mini Kit (Qiagen, Germantown, MD, USA) according to the manufacturer’s instructions.
HBsAg and HBeAg levels in the cell culture medium were measured using Enzygnost HBsAg 6.0 and Enzygnost HBe monoclonal (Siemens, Munich, Germany), respectively, according to the manufacturer’s instructions.

[4] = system: AhR signaling pathway; assay: CYP mRNA qPCR in 3D cultured FLC-4 cells; assay type: cell-based, human; conditions: 1, 10 μM, 1 day
Description: The human hepatocellular carcinoma cell line FLC-4 was cultured on micro-space cell culture plates (Elplasia SQ-200, -100, -24, Kuraray, Tokyo, Japan) maintained at 37 °C and 5 % CO2 according to the manufacturer’s protocol. FLC-4 cells suspended in DMEM/Ham’s F12 medium supplemented with 10% heat-inactivated fetal bovine serum, 100 U/mL penicillin G, and 100 μg/mL streptomycin were seeded at a density of 8.0 × 10^5 cells/well and cultured for 3 days. The medium was replenished every 72 h, completely removed, and replaced with serum-free medium containing 1–10 µM iCDM-34 or vehicle (DMSO). Total RNA was isolated from cells and reverse transcribed complementary DNA was subjected to quantitative qPCR. mRNA expression was determined using TaqMan Gene Expression Assays (Hs00167927_m1 for CYP1A2, Hs00604506_m1 for CYP3A4, for Hs00426397_m1 for CYP2C9; Thermo Fisher Scientific, Waltham, MA, USA). Expression levels were determined using the 2^–ΔΔCt method and were normalized to endogenous GAPDH mRNA expression levels.

[5] = system: phospho-SAMHD1; assay: Western blotting of phospho-SAMHD1 in HepG2-NTCP-C4 cells; assay type: cell-based, human; conditions: 30 μM, 1 day
Description: HepG2-NTCP-C4 cells were treated with 30 μM iCDM-17 and iCDM-34 for 1 day. The cells were lyzed with 20 mM TrisHCl pH 7.5 containing 100 mM NaCl, 10 mM EDTA, 1% TritonX-100, 1% Sodium deoxycholate, PhosSTOP (Roche), Complete EDTA free. The lysates were sonicated 30 s and mixed for 1 h with rotation at 4 °C. The lysates were centrifuged at 15,000 rpm for 10 min at 4 °C. The supernatants were analyzed by Western blotting using anti-phospho-SAMHD1 (Thr592) (Cell signaling technology, 89930, 1/1000), anti-SAMHD1 (Cell signaling technology, 49158, 1/1000), and β−actin (Santa Cruz, 1/1000).

[6] = system: CDK1/2; assay: CDK1/2 mRNA qPCR in HepG2-NTCP-C4 cells; assay type: cell-based, human; conditions: 30 μM
Description: HepG2-NTCP-C4 cells were plated on a 96-well plate in DMEM/F12 and GlutaMAX Supplement (Thermo Fisher Scientific) containing 10% fetal bovine serum, 10 mM HEPES, 5 μg/ml insulin, […] hydrocortisone, 200 U/ml penicillin, and 200 μg/ml streptomycin. After 1 day, the cells were treated with 30 μM iCDM-17 and iCDM-34 for 3, 8, 24 h. Total RNA was purified form the cells using Agencourt RNA advance (Beckman Courter). cDNA was synthesized using PrimeScript RT master mix (Takara Bio). CDK1, CDK2, β-actin mRNA amount was quantified by qPCR.
mRNA expression levels were measured by qPCR using specific primers or sets of specific primers and probe. RNA was reverse transcribed using PrimeScript RT Master Mix (Takara Bio, Shiga, Japan) to synthesize complementary DNA (cDNA). OAS1,glyceraldehyde 3-phosphate dehydrogenase (GAPDH), β-actin mRNA expression levels were measured using specific primers and TB Green Premix Ex Taq II (Takara Bio). AhR (Hs00169233_m), CDK1 (Hs00938777_m), CDK2 (Hs01548894_m) mRNA expression levels were measured using specific probe and primer sets (Thermo Fisher Scientific, Waltham, MA, USA) and Probe qPCR mix (Takara Bio) in a CFX96 Touch Real-Time PCR Detection System (Bio-Rad Laboratories, Hercules, CA, USA). […] Expression levels were determined using the 2^–ΔΔCt method and were normalized to endogenous β-actin mRNA expression levels.

[7] = system: HCV replicon cells; assay: AhR knockdown in HCV replicon cells, luciferase assay; assay type: cell-based; conditions: 30 μM, 2 days
Description: For knockdown of AhR in the HCV replicon cells, 2 ×10^4 cells of HCV replicon cells were mixed with AhR siRNA (siGENOME Human AHR siRNA – Smart pool, Horizon Discovery, Cambridgeshire, United Kingdom) and X-tremeGene 360 transfection reagent (Roche) and plated on 96 well plates. After 2 days of knockdown, the cells were treated with 30 μM iCDM-17, iCDM-34, and CDM-3008 for 2 days. The quantity of HCV replicons and cell viability were measured. The cellular RNA was purified using Agencourt RNAdvance (Beckman Coulter, San Jose, CA) and reverse-transcribed using PrimeScript RT master mix (Takara Bio, Kusatsu, Japan) to measure amount of AhR and β-actin mRNAs by quantitative PCR.

[8] = system: promoter of hypoxia inducible factor (HIF); design: method as in PMID 34492592; conditions: cited from earlier work

SMILES: O=C(Nc1ccc(Br)cc1)c1ccn(Cn2cc([N+](=O)[O-])cn2)n1 [iCDM-34]
- half-life at 1 μM [1]: 33.1 min
- remaining at 0.5 h, 1 μM ([1]; 1 μM substrate, 0.5 mg protein/mL, 30 min): 41.2 ± 0.4%
- remaining at 1 h, 1 μM ([1]; 1 μM substrate, 0.5 mg protein/mL, 60 min): 21 ± 0.8%
- half-life [2]: 23 min
- HBeAg in medium [3]: inhibited
- HBsAg in medium [3]: inhibited
- CYP1A2 mRNA expression [4]: increased expression
- phospho-SAMHD1 levels [5]: lower than pre-treatment levels
- CDK2 mRNA expression levels ([6]; after 3 and 8 h): significantly suppressed
- CDK1 mRNA levels ([6]; after 8 and 24 h): significant suppression
- anti-HCV activity (HCV replicon RNA) with AhR siRNA ([7]; AhR siRNA): not present
- anti-HCV activity (HCV replicon RNA) with control siRNA ([7]; control siRNA): significant anti-HCV activity
- suppression of HIF promoter [8]: suppress

Reference: article PMC10746708, “A small molecule iCDM-34 identified by in silico screening suppresses HBV DNA through activation of aryl hydrocarbon receptor” (Cell Death Discovery, 2023)
